Reference: patent US12503436B2, “Compounds and compositions for treating conditions associated with STING activity” (NOVARTIS PHARMA AG, priority 2021, dated 2025)

What follows are compounds tested against STING (Homo sapiens, UniProt Q86WV6, G230A/H232R/R293Q/R71H) (assay: STING reporter assay in THP1-Dual KO-IFNAR2 cells (2′3′cGAMP stimulation, luciferase reporter)). Settings: 15 μM 2′3′cGAMP stimulation, 24 h, read-out: Pharmaron, THP1_IFNAR2 STING 24 h Luci Normalized: GeoMean EC50.
Format: cell-based
Outline: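 EC50 from secreted luciferase (QUANTI-Luc Plus luminescence of supernatant) after 24 h at 37 °C, 5% CO2. Cells: THP1-Dual KO-IFNAR2, treated with compound (0.0017-100 μM final) plus lipofected 2′3′cGAMP at 15 μM final.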

STING, sequence (Q86WV6 whole entry R71H/G230A/H232R/R293Q): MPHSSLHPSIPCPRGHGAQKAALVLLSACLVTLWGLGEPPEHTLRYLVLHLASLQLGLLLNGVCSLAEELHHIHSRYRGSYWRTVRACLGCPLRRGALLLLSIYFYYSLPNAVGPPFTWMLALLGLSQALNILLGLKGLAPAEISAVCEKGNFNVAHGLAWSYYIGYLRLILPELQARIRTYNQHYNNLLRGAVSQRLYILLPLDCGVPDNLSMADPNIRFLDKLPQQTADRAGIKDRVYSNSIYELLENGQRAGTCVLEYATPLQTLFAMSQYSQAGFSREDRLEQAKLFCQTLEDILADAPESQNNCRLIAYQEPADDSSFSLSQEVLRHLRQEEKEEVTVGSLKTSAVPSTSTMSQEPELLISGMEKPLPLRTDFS

Compound | EC50
O=C(Nc1c[nH]c2ccc(O[C@H]3C[C@H](c4ccc(C(F)(F)F)cc4)C3)cc12)C1CNC1 [Compound 459, N-{5-[(1R, 3R)-3-[4-(trifluoromethyl)phenyl]cyclobutoxy]-1H-indol-3-yl}azetidine-3-carboxamide] | 5 to 100 µM
CO[C@H]1C[C@H](C(=O)Nc2c[nH]c3ccc(O[C@H]4C[C@@H](c5ccc(C(F)(F)F)cc5)C4)cc23)C1 [Compound 295, trans-3-methoxy-N-(5-(cis-3-(4-(trifluoromethyl)phenyl)cyclobutoxy)-1H-indol-3-yl)cyclobutane-1-carboxamide] | 0.04 to 0.2 µM
CC(=O)Nc1c[nH]c2ccc(CCC[C@@H]3C[C@@H]4CN(CC(F)(F)F)C[C@@H]4C3)cc12 [Compound 539, N-(5-(3-((3aR,5r,6aS)-2-(2,2,2-trifluoroethyl)octahydrocyclopenta[c]pyrrol-5-yl)propyl)-1H-indol-3-yl)acetamide] | 1 to 5 µM
CC(=O)Nc1c[nH]c2ccc(CO[C@H]3C[C@H](c4ccc(C(F)(F)F)cc4)C3)cc12 [Compound 482, N-(5-((trans-3-(4-(trifluoromethyl)phenyl)cyclobutoxy)methyl)-1H-indol-3-yl)acetamide] | 0.04 to 0.2 µM
CC(=O)Nc1c[nH]c2ccc(CCO[C@@H]3C[C@@H]4CN(CC(F)(F)F)C[C@@H]4C3)cc12 [Compound 293] | 5 to 100 µM
COCCOCC(=O)Nc1c[nH]c2ccc(OCc3ccc(C(F)(F)F)cc3)cc12 [Compound 404, 2-(2-methoxyethoxy)-N-(5-((4-(trifluoromethyl)benzyl)oxy)-1H-indol-3-yl)acetamide] | 1 to 5 µM
COCCOCC(=O)Nc1c[nH]c2ccc(O[C@H]3C[C@@H](c4ccc(C(F)(F)F)cc4)C3)cc12 [Compound 405, 2-(2-methoxyethoxy)-N-(5-(cis-3-(4-(trifluoromethyl)phenyl)cyclobutoxy)-1H-indol-3-yl)acetamide] | 0.2 to 1 µM
CC1(C(=O)Nc2c[nH]c3ccc(O[C@H]4C[C@H](c5ccc(C(F)(F)F)cc5)C4)cc23)CNC1 [Compound 567, 3-methyl-N-(5-(trans-3-(4-(trifluoromethyl)phenyl)cyclobutoxy)-1H-indol-3-yl)azetidine-3-carboxamide] | 1 to 5 µM
COCCOCC(=O)Nc1c[nH]c2ccc(O[C@H]3C[C@H](c4ccc(C(F)(F)F)cc4)C3)cc12 [Compound 486, 2-(2-methoxyethoxy)-N-{5-[(1R,3R)-3-[4-(trifluoromethyl)phenyl]cyclobutoxy]-1H-indol-3-yl}acetamide] | 0.04 to 0.2 µM
O=C(Nc1c[nH]c2ccc(/C=C/c3ccc(C(F)(F)F)cc3)cc12)C1CCC1 [Compound 144, (E)-N-(5-(4-(trifluoromethyl)styryl)-1H-indol-3-yl)cyclobutanecarboxamide] | 5 to 100 µM
CC(=O)Nc1c[nH]c2ccc(OCC3CCc4ccc(C(F)(F)F)cc4C3)cc12 (stereo not drawn) [Compound 437, N-(5-((7-(trifluoromethyl)-1,2,3,4-tetrahydronaphthalen-2-yl)methoxy)-1H-indol-3-yl)acetamide] | 0.2 to 1 µM
CC1(C(=O)Nc2c[nH]c3ccc(CCOc4ccc(C(F)(F)F)cc4)cc23)CC1 [Compound 399, 1-methyl-N-(5-(2-(4-(trifluoromethyl)phenoxy)ethyl)-1H-indol-3-yl)cyclopropane-1-carboxamide] | 0.2 to 1 µM
O=C(Nc1c[nH]c2ccc(O[C@H]3C[C@@H](c4ccc(C(F)(F)F)cc4)C3)cc12)C1CCOCC1 [Compound 365, N-(5-(cis-3-(4-(trifluoromethyl)phenyl)cyclobutoxy)-1H-indol-3-yl)tetrahydro-2H-pyran-4-carboxamide] | 0.04 to 0.2 µM
CC(=O)Nc1c[nH]c2ccc(OCc3ccc(C(F)(F)F)cc3)cc12 [Compound 247, N-(5-((4-(trifluoromethyl)benzyl)oxy)-1H-indol-3-yl)acetamide] | 0.2 to 1 µM
CC(=O)Nc1c[nH]c2ccc(CCOc3ccccc3C3(C)CCN(CC(F)(F)F)CC3)cc12 [Compound 208, N-(5-(2-(2-(4-methyl-1-(2,2,2-trifluoroethyl)piperidin-4-yl)phenoxy)ethyl)-1H-indol-3-yl)acetamide] | 1 to 5 µM
N#CC1CCC1C(=O)Nc1c[nH]c2ccc(OCc3ccc(C(F)(F)F)cc3)cc12 (stereo not drawn) [Compound 351, 2-cyano-N-(5-((4-(trifluoromethyl)benzyl)oxy)-1H-indol-3-yl)cyclobutane-1-carboxamide] | 0.2 to 1 µM
CC(=O)Nc1c[nH]c2c(C)cc(CCOc3ccc(C(F)(F)F)cc3)cc12 [Compound 264, N-(7-methyl-5-(2-(4-(trifluoromethyl)phenoxy)ethyl)-1H-indol-3-yl)acetamide] | 1 to 5 µM
O=C(Nc1c[nH]c2ccc(CCOc3ccc(C(F)(F)F)cc3)cc12)C1CC1 [Compound 592, N-(5-(2-(4-(trifluoromethyl)phenoxy)ethyl)-1H-indol-3-yl)cyclopropanecarboxamide] | 0.2 to 1 µM
CC1(C(=O)Nc2c[nH]c3ccc(CCOc4ccc(C(F)(F)F)cc4)cc23)CCCO1 (stereo not drawn) [Compound 396, 2-methyl-N-(5-(2-(4-(trifluoromethyl)phenoxy)ethyl)-1H-indol-3-yl)tetrahydrofuran-2-carboxamide] | 0.2 to 1 µM
CC(=O)Nc1c[nH]c2ccc(COCc3cccc(C(F)(F)F)c3)cc12 [Compound 106, N-(5-(((3-(trifluoromethyl)benzyl)oxy)methyl)-1H-indol-3-yl)acetamide] | 0.2 to 1 µM
C[C@@H]1OC[C@H]1C(=O)Nc1c[nH]c2ccc(O[C@H]3C[C@H](c4ccc(C(F)(F)F)cc4)C3)cc12 [Compound 423, (2S,3R)-2-methyl-N-(5-(trans-3-(4-(trifluoromethyl)phenyl)cyclobutoxy)-1H-indol-3-yl)oxetane-3-carboxamide] | 0.2 to 1 µM
O=C(Nc1c[nH]c2ccc(C(O)CCc3ccc(C(F)(F)F)cc3)cc12)C1CC1 (stereo not drawn) [Compound 209, N-(5-(1-hydroxy-3-(4-(trifluoromethyl)phenyl)propyl)-1H-indol-3-yl)cyclopropanecarboxamide] | 0.2 to 1 µM
CC(=O)Nc1c[nH]c2ccc(CCOc3cnc4cccc(Cl)c4c3)cc12 [Compound 560, N-(5-(2-((5-chloroquinolin-3-yl)oxy)ethyl)-1H-indol-3-yl)acetamide] | 1 to 5 µM
CC(=O)Nc1c[nH]c2ccc(CC(Cc3ccc(C(F)(F)F)cc3)NC(C)=O)cc12 (stereo not drawn) [Compound 516, N-(1-(3-acetamido-1H-indol-5-yl)-3-(4-(trifluoromethyl)phenyl)propan-2-yl)acetamide] | 5 to 100 µM
CN1CC(C(=O)Nc2c[nH]c3ccc(CCOc4ccc(C(F)(F)F)cc4)cc23)C1 [Compound 590, 1-methyl-N-(5-(2-(4-(trifluoromethyl)phenoxy)ethyl)-1H-indol-3-yl)azetidine-3-carboxamide] | 1 to 5 µM

The next lines start with the values.

EC50 | Compound
0.2 to 1 µM | CC(=O)Nc1c[nH]c2ccc(CCOc3ccc(C(F)(F)F)c(Br)c3)cc12 [Compound 543, N-(5-(2-(3-bromo-4-(trifluoromethyl)phenoxy)ethyl)-1H-indol-3-yl)acetamide]
0.2 to 1 µM | C[C@H]1C[C@@H](C(=O)Nc2c[nH]c3ccc(OCC[C@@H]4C[C@@H]5CN(CC(F)(F)F)C[C@@H]5C4)cc23)C1 [Compound 150, (1R,3S)—N-(5-{2-[(3aR,5S,6aS)-2-(2,2,2-trifluoroethyl)-octahydrocyclopenta[c]pyrrol-5-yl]ethoxy}-1H-indol-3-yl)-3-methylcyclobutane-1-carboxamide]
0.2 to 1 µM | O=C(Nc1c[nH]c2ccc(CC(O)Cc3ccc(C(F)(F)F)cc3)cc12)C1CC1 (stereo not drawn) [Compound 240, N-(5-(2-hydroxy-3-(4-(trifluoromethyl)phenyl)propyl)-1H-indol-3-yl)cyclopropanecarboxamide]
0.04 to 0.2 µM | O=C(Nc1c[nH]c2ccc(CCOc3ccc(C(F)(F)F)cc3)cc12)C1CN(CC(F)(F)F)C1 [Compound 219, 1-(2,2,2-trifluoroethyl)-N-(5-(2-(4-(trifluoromethyl)phenoxy)ethyl)-1H-indol-3-yl)azetidine-3-carboxamide]
0.2 to 1 µM | CC(=O)Nc1c[nH]c2ccc(CC[C@@H]3C[C@@H]4CN(CC(F)(F)F)C[C@@H]4C3)cc12 [Compound 457, N-(5-(2-((3aR,5r,6aS)-2-(2,2,2-trifluoroethyl)octahydrocyclopenta[c]pyrrol-5-yl)ethyl)-1H-indol-3-yl)acetamide]
0.2 to 1 µM | CC(=O)Nc1c[nH]c2ccc(CCOc3cc(Cl)nc(C(F)(F)F)c3)cc12 [Compound 559, N-(5-(2-((2-chloro-6-(trifluoromethyl)pyridin-4-yl)oxy)ethyl)-1H-indol-3-yl)acetamide]
0.2 to 1 µM | CC(C)(C)C(=O)Nc1c[nH]c2ccc(CCOc3ccc(C(F)(F)F)cc3)cc12 [Compound 389, N-(5-(2-(4-(trifluoromethyl)phenoxy)ethyl)-1H-indol-3-yl)pivalamide]
0.04 to 0.2 µM | CC(=O)Nc1c[nH]c2ccc(COc3ccc(C(F)(F)F)cc3)cc12 [Compound 115, N-(5-((4-(trifluoromethyl)phenoxy)methyl)-1H-indol-3-yl)acetamide]
0.04 to 0.2 µM | CC[C@@H](O)C(=O)Nc1c[nH]c2ccc(OCCc3ccc(C(F)(F)F)cc3)cc12 [Compound 431, (R)-2-hydroxy-N-(5-(4-(trifluoromethyl)phenethoxy)-1H-indol-3-yl)butanamide]
0.04 to 0.2 µM | CC(C)(O)CC(=O)Nc1c[nH]c2ccc(OCCc3ccc(C(F)(F)F)cc3)cc12 [Compound 519, 3-hydroxy-3-methyl-N-(5-(4-(trifluoromethyl)phenethoxy)-1H-indol-3-yl)butanamide]
0.04 to 0.2 µM | CC1(C(=O)Nc2c[nH]c3ccc(OCCc4ccc(C(F)(F)F)cc4)cc23)COC1 [Compound 238, 3-methyl-N-(5-(4-(trifluoromethyl)phenethoxy)-1H-indol-3-yl)oxetane-3-carboxamide]
